How the values were obtained:
[1] = test system: epithelial tumor cell lines; experiment: Apoptotic assay of Gp 120 and Nef peptides; assay type: cell-based, human; settings: peptide sequences within Nef or Gp 120
Source text: The nef protein was expressed and purified in the inventors' laboratory. overlapping 20 mer peptides encompassing the entire nef protein and overlapping 15 mer peptides encompassing the entire Gp 120 protein were obtained from the NIH AIDS Research & Reference Reagent Program (McKesson HBC Bio-Services, MD) Other specific peptides designed from within Gp 120 or nef were obtained from SigmaGenosys.
Apoptosis generates DNA free ends which can be labeled in situ using terminal deoxynucleotidyl-transferase (TdT), incorporating an exogenously added labeled nucleotide to the DNA strand. This label can then be visualized directly by fluorescence or indirectly using anti-FITC-peroxidase, and a colorimetric assay. Cells on coverslips were washed with PBS, and fixed for 30 minutes at RT with 4% paraformaldehyde, in PBS, pH 7.4. They were then washed with PBS, and permeabilized with 0.1% Triton X-100 for 10 minutes at room temperature (RT). The slides were rinsed twice with PBS, and air dried for 2 minutes. The manufacturer's procedure for TUNEL staining the slides was followed (manufacturer's procedure for the In Situ Cell Death Detection Kit, AP; Boehringer Mannheim, Indianapolis, IN). Total cell counts were determined by counterstaining fixed cultures with 20 µg/ml of Hoechst 33258. […]

[2] = test system: MDA-MB231, MCF7, and DU4475; experiment: Agarose gel electrophoresis / DNA fragmentation (DNA laddering) in CXCR4-expressing lines; assay type: cell-based, human; settings: positive control, 10 mM (6.35 mg/ml), 24 hours, compared to untreated cultures
Experimental: Untreated or treated cells were collected, and DNA was harvested from normal or cancer cell cultures. Briefly, the cells were washed with PBS, pelleted at 1600 g for 20 minutes at 4°C, and resuspended in 50 mM Tris-HCl, pH 7.5, 20 mM EDTA buffer at about 10^7 cells/ml. The cells were then treated 2x with lysis buffer: 1.0% NP-40 (Sigma, St. Louis, MO) in the same Tris/EDTA buffer at RT for 2 minutes followed by centrifugation at 1600 g for 5 minutes. After the last spin, SDS was added to the supernatant to 1% final concentration, RNase A (Sigma, St. Louis, MO) was added to 5 mg/ml final concentration, and the solution incubated at 56°C for 2 hours. Subsequently, protease K (Promega, Madison, WI) was added to the solution to 2.5 µg/ml and incubated at 37°C for 2.5 hr. Ammonium acetate was added to 4 M final concentration, 0.7 volumes of isopropanol was added, the solution was put at -20°C overnight followed by centrifugation at 14,000 rpm for 30 minutes. The pellets were washed twice with 70% ethanol, dried and resuspended in 10 mM Tris-HCl, pH 7.5, 1 mM EDTA. DNA samples, 18 µg per condition, were prepared in neutral loading buffer to a final concentration of 0.02% bromophenol blue, 5% glycerol, 0.1% SDS, and 50 µg of ethidium bromide, loaded onto a neutral agarose gel (1.7%), and run at 50V for 2.5 hours. […]

ALAETCONAWA
apoptotic properties of the sequence [1]: lost all apoptotic effects

ceramide
DNA laddering [2]: DNA laddering characteristic of apoptotic cells was observed
